Experimental data published in US10517934B2, “Compositions and methods for the treatment of photoaging and other conditions” (PRO TRANSIT NANOTHERAPY LLC, priority 2014, dated 2019).

Test system: UV-induced free radicals in porcine ear skin
Assay: Skin antioxidative protection/retention (SAP/SAR) by ESR spectroscopy in porcine ear skin exposed to UV
Parameters: species or system pig
Description: Freshly excised porcine ear skin is close to human skin that is routinely used as a model for testing the protective efficacy of several topically applied antioxidants against UV-induced free radicals. Porcine skin biopsies obtained from local slaughterhouse (pig skin, 6 month old animals, external lobe of the ears) were used for the experiments. The skin was washed, the subdermal fat was removed and cut into 2×2 cm pieces before the application of test samples on the epidermal layer.
The skin has an intrinsic antioxidant protection potential (enzymatic and non-enzymatic), which can be measured by electron spin resonance (ESR) spectroscopy. If an active test sample applied to the stratum corneum penetrates to deep layers of skin, it increases the skin antioxidative protection (SAP). Labeling skin epidermis and dermis (by soaking skin on dermis side) with a semi-stable test radical (TEMPO, 2,2,6,6-tetramethyl piperidine-N-oxyl) that reacts with free radicals produces signal intensities detected by ESR spectroscopy, which can be quantitatively expressed as percent SAP values to determine the antioxidant activity in skin (epidermis and dermis).
Using SAP values from ESR spectroscopy, skin antioxidative retention (SAR) potential of a test cosmetic formulation can be effectively measured using appropriate radical probes. SAR value indicates the antioxidative activity of the skin after free radical damage (UV radiation), which evaluates the protective effectiveness of topically applied antioxidants/free radical scavengers. In addition to the assessment of antioxidative activity in skin, the SAR value also validates the penetration of the topically applied antioxidants. The SAR values are expressed in percent and are calculated using the following formula: SAR [%]=(SAPUV,Product−SAPUV,Placebo)/(SAPPlacebo−SAPUV,Placebo).
The study was conducted blinded and the operator was supplied with formulations that were coded. Pro-NP™, control NPs, or placebo (mixed at 2% w/w in anhydrous lotion) were applied on the skin (2 mg/cm^2) and allowed to penetrate for definite times (10 minutes, 30 minutes, 4 hours or 18 hours). The skin was then exposed to UV radiation (0.6 MED; Minimal Erythema Dose) to induce free radicals that lead to a decrease in the SAP values up to 59% of the initial value (without UV treatment) of the untreated skin. Irradiation source: UV solar simulator 300 W Oriel (Newport). The irradiances as integrated value over the spectral ranges were E (UVB=280-320)=23.5 W/m^2 and E (UVA=320-400 nm)=180 W/m^2. The maintenance of the SAP values after UV exposure due to the test product is expressed by the SAR values.

For Tocopherol [1% Tocopherol], which “SAR (%) 10 mins” value (2% w/w in anhydrous lotion, 2 mg/cm^2, 10 mins penetration, UV 0.6 MED) is on record?
Its value is 20%.

And the “SAR (%) 30 mins” value (30 mins penetration, UV 0.6 MED)?
The value was 6%.

And the “SAR (%) 4 hrs” value (4 hrs penetration, UV 0.6 MED)?
Its value is 0%.

And the “SAR (%) 18 hrs” value (18 hrs penetration, UV 0.6 MED)?
Its value is 0%.

And the “protection after UV” value (after 10 minutes application)?
The value was 24%.

And the “protection after UV” value (after 30 minutes)?
The value was “very weak protection”.

And the “increase of the SAP values before UV irradiation with respect to untreated skin” value (without UV irradiation)?
The value was 29%.
